Experimental findings from patent publication US5929097A, “Preparation and use of ortho-sulfonamido aryl hydroxamic acids as matrix metalloproteinase and tace inhibitors” (American Cyanamid Company, priority 1997, dated 1999) are described below.

One may read the IC50 as the midpoint of a concentration-inhibition curve.

For one test, the target named is MMP-9 (Homo sapiens, UniProt P14780). The test can be described thus: biochemical.
The target in another test is T1, MMP-1 (Homo sapiens, UniProt P03956).
T1 sequence (P03956 100-469): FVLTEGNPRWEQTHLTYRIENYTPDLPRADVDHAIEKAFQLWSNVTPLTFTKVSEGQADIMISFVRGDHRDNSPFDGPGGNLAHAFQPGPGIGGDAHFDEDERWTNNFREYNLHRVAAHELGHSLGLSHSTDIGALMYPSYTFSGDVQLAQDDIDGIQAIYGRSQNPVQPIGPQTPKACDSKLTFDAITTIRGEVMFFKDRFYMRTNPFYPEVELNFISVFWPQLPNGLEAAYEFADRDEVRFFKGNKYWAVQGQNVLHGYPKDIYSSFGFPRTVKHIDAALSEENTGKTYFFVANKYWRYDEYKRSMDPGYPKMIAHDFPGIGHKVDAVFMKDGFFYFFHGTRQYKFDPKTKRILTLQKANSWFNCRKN
Put plainly: MMP-1 inhibition (thiopeptide/DTNB or fluorescent peptide substrate). The format is biochemical.

Another test concerns the target MMP-13 (Homo sapiens, UniProt P45452). The test can be described thus: MMP-13 inhibition (thiopeptide/DTNB or fluorescent peptide substrate). The class given is biochemical.
The test system of another test is MMP9. The test can be described thus: In vivo MMP inhibition (implanted dialysis tubing containing MMP enzyme). Further details: species or system rat (Sprague-Dawley) or mouse (CD-1).
Another test addresses T2, TACE (Homo sapiens, UniProt P78536).
T2 construct: purchased Immunex
The test can be described thus: TACE inhibition (fluorescent peptidyl substrate). The class given is biochemical.

Where two headings read alike, the source gives them in different places.

T2 sequence (P78536 215-824): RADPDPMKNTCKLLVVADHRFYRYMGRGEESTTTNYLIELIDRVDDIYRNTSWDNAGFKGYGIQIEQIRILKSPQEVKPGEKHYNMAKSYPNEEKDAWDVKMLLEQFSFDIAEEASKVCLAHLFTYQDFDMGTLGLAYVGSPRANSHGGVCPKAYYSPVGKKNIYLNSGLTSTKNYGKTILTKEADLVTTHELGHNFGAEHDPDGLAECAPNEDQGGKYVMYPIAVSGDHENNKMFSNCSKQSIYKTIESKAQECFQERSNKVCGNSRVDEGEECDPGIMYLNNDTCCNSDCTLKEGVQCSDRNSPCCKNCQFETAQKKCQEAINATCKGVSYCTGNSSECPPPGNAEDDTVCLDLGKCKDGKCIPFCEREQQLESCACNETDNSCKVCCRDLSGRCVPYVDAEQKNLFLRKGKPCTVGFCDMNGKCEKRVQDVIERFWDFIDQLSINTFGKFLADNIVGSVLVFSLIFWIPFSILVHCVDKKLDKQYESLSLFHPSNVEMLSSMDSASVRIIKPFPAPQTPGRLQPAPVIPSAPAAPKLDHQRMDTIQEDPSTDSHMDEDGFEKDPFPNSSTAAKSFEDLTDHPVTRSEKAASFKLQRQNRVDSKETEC
MMP-9, sequence (P14780 94-707): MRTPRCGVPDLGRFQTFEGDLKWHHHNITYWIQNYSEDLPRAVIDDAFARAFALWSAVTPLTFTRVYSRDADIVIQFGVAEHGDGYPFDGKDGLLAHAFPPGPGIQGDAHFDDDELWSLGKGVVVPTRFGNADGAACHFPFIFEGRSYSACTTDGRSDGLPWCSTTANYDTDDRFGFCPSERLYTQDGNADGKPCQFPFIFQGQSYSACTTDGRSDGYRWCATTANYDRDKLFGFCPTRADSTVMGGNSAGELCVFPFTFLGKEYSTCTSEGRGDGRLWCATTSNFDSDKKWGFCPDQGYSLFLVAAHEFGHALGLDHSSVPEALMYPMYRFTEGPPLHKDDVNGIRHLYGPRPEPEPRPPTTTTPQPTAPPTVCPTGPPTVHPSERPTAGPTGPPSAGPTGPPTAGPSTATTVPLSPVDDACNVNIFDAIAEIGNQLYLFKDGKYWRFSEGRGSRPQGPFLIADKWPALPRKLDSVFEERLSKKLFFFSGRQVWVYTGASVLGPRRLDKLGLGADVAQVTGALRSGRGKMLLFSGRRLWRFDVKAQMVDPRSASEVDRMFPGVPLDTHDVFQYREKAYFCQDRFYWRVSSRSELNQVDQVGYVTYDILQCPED
Protocol for MMP-13: (§1) The enzyme activity is measured by the rate of the color increase. The thiopeptide substrate is made up fresh as a 20 mM stock in 100% DMSO and the DTNB is dissolved in 100% DMSO as a 100 mM stock and stored in the dark at room temperature. Both the substrate and DTNB are diluted together to 1 mM with substrate buffer (50 mM HEPES pH 7.5, 5 mM CaCl2) before use. The stock of enzyme is diluted with assay buffer (50 mM HEPES, pH 7.5, 5 mM CaCl2, 0.02% Brij) to the desired final concentration.
Alternatively, a fluorescent peptide substrate is used. In this assay, the peptide substrate contains a fluorescent group and a quenching group. Upon cleavage of the substrate by an MMP, the fluorescence that is generated is quantitated on the fluorescence plate reader. The assay is run in HCBC assay buffer (50 mM HEPES, pH 7.0, 5 mM Ca^+2, 0.02% Brij, 0.5% Cysteine), with human recombinant MMP-1, MMP-9, or MMP-13. The substrate is dissolved in methanol and stored frozen in 1 mM aliquots. For the assay, substrate and enzymes are diluted in HCBC buffer to the desired concentrations. […]
For either the thiopeptide or fluorescent peptide assays, the slope of the line is calculated and represents the reaction rate. […] The mean (x±sem) of the control rate is calculated and compared for statistical significance (p<0.05) with drug-treated rates using Dunnett's multiple comparison test.
Protocol for MMP-9: as §1
Alternatively, a fluorescent peptide substrate is used. In this assay, the peptide substrate contains a fluorescent group and a quenching group. Upon cleavage of the substrate by an MMP, the fluorescence that is generated is quantitated on the fluorescence plate reader. The assay is run in HCBC assay buffer (50 mM HEPES, pH 7.0, 5 mM Ca^+2, 0.02% Brij, 0.5% Cysteine), with human recombinant MMP-1, MMP-9, or MMP-13. The substrate is dissolved in methanol and stored frozen in 1 mM aliquots. For the assay, substrate and enzymes are diluted in HCBC buffer to the desired concentrations. Compounds are added to the 96 well plate containing enzyme and the reaction is started by the addition of substrate.
For either the thiopeptide or fluorescent peptide assays, the slope of the line is calculated and represents the reaction rate. The linearity of the reaction rate is confirmed (r^2 >0.85). The mean (x±sem) of the control rate is calculated and compared for statistical significance (p<0.05) with drug-treated rates using Dunnett's multiple comparison test.
Protocol for MMP9: Drugs are administered PO, IP, SC or IV through a canula in the jugular vein. […] Contents of the dialysis tubing is collected and enzyme activity assayed.
Enzyme reaction rates for each dialysis tube are calculated. Tubes from at least 3 different animals are used to calculate the meani sem. Statistical significance (p<0.05) of vehicle-treated animals versus drug-treated animals is determined by analysis of variance.
Protocol for TACE: Procedure for Measuring TACE Inhibition
Using 96-well black microtiter plates, each well receives a solution composed of 10 μL TACE (Immunex, final concentration 1 μg/mL), 70 μL Tris buffer, pH 7.4 containing 10% glycerol (final concentration 10 mM), and 10 μL of test compound solution in DMSO (final concentration 1 μM, DMSO concentration <1%) and incubated for 10 minutes at room temperature.
The reaction is read (excitation 340 nm, emission 420 nm) for 10 min. and the increase in fluorescence over time is plotted as a linear line. The slope of the line is calculated and represents the reaction rate.
The linearity of the reaction rate is confined (r^2 >0.85). The mean (x±sem) of the control rate is calculated and compared for statistical significance (p<0.05) with drug-treated rates using Dunnert's multiple comparison test.

As to `Cc1cccc(C(=O)NO)c1N(C)S(=O)(=O)c1ccc(Oc2ccncc2)cc1` [Example 417], the values for the IC50 against MMP-9 and on MMP-1 were 6.8 nM and 3240 nM, respectively.
For `COc1ccc(S(=O)(=O)N(Cc2cccnc2)c2c(OCc3cccnc3)cccc2C(=O)NO)cc1` [Example 61], the IC50 at MMP-13 is 33 nM; on TACE, 289 nM; on MMP-9, 34 nM. The “in-vivo MMP % inhibition vs. MMP9” value in the test with MMP9 (20 mg/kg, po) is 46%; in the test with MMP9 (50 mg/kg, po) it was 59%.
`COc1ccc(S(=O)(=O)N(Cc2cccnc2)c2c(C(=O)NO)cc(C)cc2-c2cccs2)cc1` [Example 145, N-Hydroxy-2-[(4-methoxy-benzenesulfonyl)-pyridin-3-ylmethyl-amino]-5-methyl-3-thiophen-2-yl-benzamide]: the IC50 is 3 nM at MMP-13 (read-out: MMP-13 IC50), 158 nM on TACE (read-out: TACE IC50), 7 nM on MMP-9 and 55 nM on MMP-1.
Take `CCCN(c1c(C)cc(C)cc1C(=O)NO)S(=O)(=O)c1ccc(OC)cc1` [Example 117, N-Hydroxy-2-[(4-methoxy-benzenesulfonyl)-propyl-amino]-3,5-dimethyl-benzamide]: the “in-vivo MMP % inhibition vs. MMP9” value in the test on MMP9 (100 mg/kg, ip) came to 28.3%.
Compound `CCCCCCCCN(c1c(CN2CCN(C)CC2)cccc1C(=O)NO)S(=O)(=O)c1ccc(OC)cc1` [Example 325, N-Hydroxy-2-[(4-methoxy-benzenesulfonyl)-octyl-amino] -3-(4-methyl-piperazin-1-ylmethyl)-benzamide] gave an IC50 on MMP-1 of 20 nM.
Regarding `COc1ccc(S(=O)(=O)N(Cc2ccccc2)c2c(Cl)cccc2C(=O)NO)cc1` [Example 24, 2-[Benzyl-(4-methoxy-benzenesulfonyl)-amino]-3-chloro-N-hydroxy-benzamide], the IC50 on TACE (read-out: TACE IC50) worked out at 1000 nM.
On to `COc1ccc(S(=O)(=O)N(Cc2ccccc2)c2c(OCc3ccccc3)cccc2C(=O)NO)cc1` [Example 34, 2-[Benzyl-(4-methoxy-benzenesulfonyl)-amino]-3-benzyloxy-N-hydroxy-benzamide], for which, in the test with MMP9 (100 mg/kg, ip), the “in-vivo MMP % inhibition vs. MMP9” value worked out at 31.6%.
Turning to `COc1ccc(S(=O)(=O)N(Cc2cccnc2)c2c(C)cc(Br)cc2C(=O)NO)cc1` [Example 91, 5-Bromo-N-hydroxy-2-[(4-methoxy-benzenesulfonyl)-pyridin-3-ylmethyl-amino]-3-methyl-benzamide], the “in-vivo MMP % inhibition vs. MMP9” value in the test on MMP9 (100 mg/kg, po) worked out at 55%.
In the case of `COc1ccc(S(=O)(=O)N(Cc2ccccc2)c2c(C)cc(Br)cc2C(=O)NO)cc1` [Example 25, 2-[Benzyl-(4-methoxy-benzenesulfonyl)-amino]-5-bromo-N-hydroxy-3-methyl-benzamide], the “in-vivo MMP % inhibition vs. MMP9” value with MMP9 (100 mg/kg, ip) stood at 32%.
